Data: paper PMC7534320 (Journal of Enzyme Inhibition and Medicinal Chemistry, 2020)
≈ marks a conversion by molar mass, not a printed value. Like-named read-outs stand apart in the source and are kept apart here.

How the values were obtained:
[1] = Antioxidant activity, DPPH radical reaction; format: biochemical; details: free substance; linear regression
Procedure: The antioxidant activity was evaluated using the DPPH radical reaction. The investigation of antioxidant properties was performed spectrophotometrically, according to Studzińska-Sroka’s modifications. […] 25.0 µL of DPPH solution was mixed with 175.0 µL of studied solutions in a 96-well plate, and then the plate was shaken and incubated in darkness for half an hour at room temperature. Subsequently, the absorbance (A) was measured at the wavelength set at 517 nm against the blank (the mixture of DPPH solution and methanol). The inhibition of the DPPH radical by the studied samples was calculated due to the following equation: A=Ao − Ai/Ao x 100% where Ao is the absorbance of the control sample, Ai is the absorbance of studied samples. Every determination was repeated six times. As a reference, vitamin C was used. IC50 values, which determine the concentration of the substance that inhibits the formation of DPPH by 50%, were determined by linear regression analysis.

[2] = PAMPA gastrointestinal (GIT) permeability; format: in vitro ADME
From the text: (§1) In vitro gastrointestinal (GIT) and blood–brain barrier (BBB) permeability was studied using the PAMPA model (Parallel Artificial Membrane Permeability Assay). The sandwich consists of two 96-well microfilter plates. The PAMPA system contains two chambers: the donor at the bottom and the acceptor chamber at the top. The chambers are separated by a 120-μm-thick microfilter disc coated with a 20% (w/v) dodecane solution of a lecithin mixture (Pion, Inc.). Before adding samples to the donor compartments, the samples were dissolved in DMSO. The donor solution was adjusted to pH ≈ 6.8 for GIT application and to pH ≈ 7.4 for BBB application using 0.5 M NaOH. The plates were combined and then incubated for 3 h for GIT model and 4 h for BBB model in a humidity-saturated atmosphere at the temperature set at 310 K. The apparent permeability coefficient (Papp) was calculated according to the following equation: Papp=−ln(1−CA/Cequilibrium)/S×(1/VD+1/VA)×t where VD – donor volume, VA – acceptor volume, Cequilibrium – equilibrium concentration Cequilibrium=CD×VD+ CA×VA/VD+VA, S – membrane area, t – incubation time (in seconds).

[3] = PAMPA blood–brain barrier (BBB) permeability; format: in vitro ADME
From the text: as §1
Compounds with high permeability have the Papp value at the level >4.0 × 10^−6 cm s^−1 [28].

[4] = system: C. difficile ATCC 9689; test: Agar well diffusion technique; format: cell-based; details: 25 mg/mL dissolved in methanol and filtered
[5] = system: C. butyricum ATTC 860; format: cell-based; details: 25 mg/mL dissolved in methanol and filtered
[6] = system: L. monocytogenes ATCC 7644; test: Agar well diffusion technique; format: cell-based; details: 25 mg/mL dissolved in methanol and filtered
[7] = system: B. subtillis ATCC 238557; test: Agar well diffusion technique; format: cell-based; details: 25 mg/mL dissolved in methanol and filtered
[8] = system: E. faecalis ATTC 29212; test: Agar well diffusion technique; format: cell-based; details: 25 mg/mL dissolved in methanol and filtered
[9] = system: S. aureus ATCC 25923; test: Agar well diffusion technique; format: cell-based; details: 25 mg/mL dissolved in methanol and filtered
[10] = system: S. pyrogenes ATCC 19615; test: Agar well diffusion technique; format: cell-based; details: 25 mg/mL dissolved in methanol and filtered
[11] = system: E. coli ATCC 25922; test: Agar well diffusion technique; format: cell-based; details: 25 mg/mL dissolved in methanol and filtered
[12] = system: K. pneumoniae ATCC 31488; test: Agar well diffusion technique; format: cell-based; details: 25 mg/mL dissolved in methanol and filtered
[13] = system: P. mirabilis ATCC 12453; test: Agar well diffusion technique; format: cell-based; details: 25 mg/mL dissolved in methanol and filtered
[14] = system: S. typhimurium ATCC 14028; test: Agar well diffusion technique; format: cell-based; details: 25 mg/mL dissolved in methanol and filtered
[15] = system: P. aereuginosa ATCC 27853; test: Agar well diffusion technique; format: cell-based; details: 25 mg/mL dissolved in methanol and filtered
[16] = system: E. aerogenes ATCC 13048; test: Agar well diffusion technique; format: cell-based; details: 25 mg/mL dissolved in methanol and filtered
[17] = system: C. krusei ATCC 14243; test: Agar well diffusion technique; format: cell-based; details: 25 mg/mL dissolved in methanol and filtered
[18] = system: C. albicans ATTC 10231; test: Agar well diffusion technique; format: cell-based; details: 25 mg/mL dissolved in methanol and filtered
[19] = piperine after incorporation into the cavity of β-cyclodextrin; cited from earlier work

Compound	IC50 DPPH [1] [mg/mL]	Inhibition zone (mm) – Agar well diffusion technique [4] [mm]	Inhibition zone (mm) – Agar well diffusion technique [5] [mm]	Inhibition zone (mm) – Agar well diffusion technique [6] [mm]	Inhibition zone (mm) – Agar well diffusion technique [7] [mm]	Inhibition zone (mm) – Agar well diffusion technique [8] [mm]	Inhibition zone (mm) – Agar well diffusion technique [9] [mm]	Inhibition zone (mm) – Agar well diffusion technique [10] [mm]	Inhibition zone (mm) – Agar well diffusion technique [11] [mm]	Inhibition zone (mm) – Agar well diffusion technique [12] [mm]	Inhibition zone (mm) – Agar well diffusion technique [13] [mm]	Inhibition zone (mm) – Agar well diffusion technique [14] [mm]	Inhibition zone (mm) – Agar well diffusion technique [15] [mm]	Inhibition zone (mm) – Agar well diffusion technique [16] [mm]	Inhibition zone (mm) – Agar well diffusion technique [17] [mm]	Inhibition zone (mm) – Agar well diffusion technique [18] [mm]	other results
O=C1O[C@H]([C@@H](O)CO)C(O)=C1O [Vitamin C]	0.066 (≈ 0.375 mM)																
O=C(/C=C/C=C/c1ccc2c(c1)OCO2)N1CCCCC1 [Piperine, piperine]	38.945 (≈ 136 mM)	3.5	5.5	5.0	7.0	9.0	3.0	2.5	2.0	2.0	1.0	1.5	1.5	1.0	2.5	2.5	Papp at 3 h ([2]; donor pH ≈ 6.8, 3 h, 310 K, read-out: Papp of piperine, GIT PAMPA): 19 ×10⁻⁶ cm/s; Papp at 4 h ([3]; PAMPA, donor pH ≈ 7.4, 4 h, 310 K, read-out: Papp of piperine, BBB PAMPA): 11.9 ×10⁻⁶ cm/s; permeability classification, BBB PAMPA ([3]; Papp > 4.0 × 10^−6 cm s^−1 = high permeability): well permeable; increase of solubility of piperine [19]: about 16 folds
COc1cc(/C=C/C(=O)CC(=O)/C=C/c2ccc(O)c(OC)c2)ccc1O [Curcumin, Diferuloylmethane]		6.5	5.5	5.0	8.5	10.5	4.0	5.0	3.0	2.5	3.0	5.5	2.5	2.5	2.0	4.5	permeability classification, GIT PAMPA [2]: well permeable; Papp at 3 h ([2]; pH 6.8): 3.46 ×10⁻⁶ cm/s; permeability classification, BBB PAMPA ([3]; PAMPA): well permeable; Papp at 4 h ([3]; PAMPA, pH 7.4): 31.1 ×10⁻⁶ cm/s
